Assay results published in patent US20250295627A1 (Leibniz-Institut Fuer Neurobiologie, priority 2022, published 2025).

How the values were obtained:
Solubility in water = format: physicochemical
pCREB = assay: Jacob-induced CREB shutoff in hippocampal primary neurons expressing phosphodeficient Jacob; format: cell-based, rat; conditions: 2 μM OA, 20 min, neurons expressing phosphodeficient Jacob in the nucleus
Protocol: Hippocampal neuronal cultures were transfected with plasmid DNA using Lipofectamine2000 (Thermo Fisher Scientific) following the manufacturer's instructions. For LMO4 knockdown cells were expressing shRNA for 5 days; for Jacob knockdown 4 days. […]. The target sequences for LMO4 and NLS-Jacob knockdown (Spilker et al., 2016) as well as scrambled controls are indicated in key resources table. For Aβ-induced CREB shutoff experiments Aβ oligomers (Anaspec) were prepared as described previously (see previous section, (Grochowska et al., 2017)). Transfected neurons were treated with 500 nM Aβ1-42 or Aβ3 (pE)-42. Nitarsone was diluted in distilled water.

GluR1 = format: cell-based, rat
HEK293T cells = assay: Heterologous co-immunoprecipitation from HEK293T cells; format: cell-based; conditions: 20 nM staurosporine, 3 h
GST-LMO4 = target: T1, GST-LMO4 (Homo sapiens, UniProt P61968); assay: Isothermal titration calorimetry (ITC); conditions: binding to LMO4, 25 mM Tris buffer pH 7.4, 50 mM NaCl
T1 construct: made in house; host or cells: E. coli BL21 (DE3)
T1 sequence (P61968 1-165): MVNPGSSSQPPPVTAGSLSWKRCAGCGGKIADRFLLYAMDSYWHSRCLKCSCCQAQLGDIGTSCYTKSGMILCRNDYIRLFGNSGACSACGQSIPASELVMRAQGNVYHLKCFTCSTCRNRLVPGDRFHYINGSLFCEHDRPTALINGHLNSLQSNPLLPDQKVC

## CC(NCCO)c1ccc([N+](=O)[O-])cc1 (stereo not shown) [NPEAE, 2-{[1-(4-nitrophenyl)ethyl]amino}ethan-1-ol]
Solubility in water
  solubility in water: soluble in water

## C=C1[C@@H](O)[C@@H]2O[C@]3(CC[C@H](/C=C/[C@@H](C)[C@@H]4CC(C)=C[C@@]5(O[C@H](C[C@@](C)(O)C(=O)O)CC[C@H]5O)O4)O3)CC[C@H]2O[C@@H]1[C@@H](O)C[C@H](C)[C@H]1O[C@@]2(CCCCO2)CC[C@H]1C [OA, okadaic acid]
pCREB
  Jacob-induced CREB shutoff: prevented Jacob-induced CREB shutoff

## NC1=N[C@H](O)[C@H]2[C@H]3O[C@]4(O)O[C@@H]([C@@H](O)[C@@]2(N1)[C@@H]4O)[C@]3(O)CO [TTX, tetrodotoxin]
GluR1
  GluR1 surface expression: induced upregulation of GluR1 surface expression

## CN[C@@H]1C[C@H]2O[C@@](C)([C@@H]1OC)n1c3ccccc3c3c4c(c5c6ccccc6n2c5c31)C(=O)NC4 [staurosporine]
HEK293T cells
  Jacob phosphorylation level (S180): decreases Jacob phosphorylation level (S180)
  association of Jacob with CREB: decreases the association of Jacob with CREB
  association of Jacob with LMO4-tagRFP: increases its association with LMO4-tagRFP

B1: Jacob: synapto-nuclear protein messenger; recombinant protein titrated against LMO4 in ITC (protein, listed as Homo sapiens)
chain: MGAAASRRRALRSEAMSSVAAKVRAARAFGEYLSQSHPENRNGADHLLADAYSGHDGSPEMQPAPQNKRRLSLVSNGCYEGSLSEEPSIRKPAGEGPQPRVYTISGEPALLPSPEAEAIELAVVKGRRQRHPHHHSQPLRASPGGSREDVSRPCQSWAGSRQGSKECPGCAQLAPGPTPRAFGLDQPPLPETSGRRKKLERMYSVDRVSDDIPIRTWFPKENLFSFQTATTTMQAISVFRGYAERKRRKRENDSASVIQRNFRKHLRMVGSRRVKAQTFAERRERSFSRSWSDPTPMKADTSHDSRDSSDLQSSHCTLDEAFEDLDWDTEKGLEAVACDTEGFVPPKVMLISSKVPKAEYIPTIIRRDDPSIIPILYDHEHATFEDILEEIERKLNVYHKGAKIWKMLIFCQGGPGHLYLLKNKVATFAKVEKEEDMIHFWKRLSRLMSKVNPEPNVIHIMGCYILGNPNGEKLFQNLRTLMTPYRVTFESPLELSAQGKQMIETYFDFRLYRLWKSRQHSKLLDFDDVL
GST-LMO4
  Kd: 370 nM
